In PubChem BioAssay (NCI):
Where “and” joins values, the source holds several entries; their conditions need not be identical. Identical values can stand only once.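 Dose response: 5 concentrations. Exposure: 48 h. Format: 96-well plates. Endpoint: linear interpolation; highest concentration if not reached. The concentration for 50% growth inhibition is given as GI50. TGI: concentration producing complete growth inhibition.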

Columns and labels:
Assay in all cases: DTP human tumour cell line panel, 48 h
[1] = tested on: 786-0 renal
[2] = tested on: CCRF-CEM leukemia
[3] = tested on: DU-145 prostate
[4] = tested on: LOX IMVI melanoma
[5] = tested on: MOLT-4 leukemia
[6] = tested on: NCI-H460 lung
[7] = tested on: NCI/ADR-RES ovarian
[8] = tested on: OVCAR-3 ovarian
[9] = tested on: OVCAR-5 ovarian
[10] = tested on: SR leukemia

Row | SMILES | GI50 [1] | TGI [1] | GI50 [2] | TGI [2] | GI50 [3] | TGI [3] | GI50 [4] | TGI [4] | GI50 [5] | TGI [5] | GI50 [6] | TGI [6] | GI50 [7] | TGI [7] | GI50 [8] | TGI [8] | GI50 [9] | TGI [9] [µM] | GI50 [10] | TGI [10]
1 | CSC1=Nc2c(c(C)c(-c3ccccc3)n2CCCCl)C2=NC(=O)CN12 | 8.57 µM | 61.7 µM | 5.08 µM | > 100 µM | 11.5 µM | 26.7 µM | 4.13 µM | 17.6 µM | 3.93 µM | > 100 µM | 3.7 µM | 15 µM | 4.29 µM | > 100 µM | 8.28 µM | 36.2 µM | 11.6 µM | 37.8 | 3.45 µM | > 100 µM
2 | COc1ccc2[nH]c(-c3ccccc3)c(C=C(C#N)C#N)c2c1 | 6.63 µM | > 100 µM | 3.42 µM | > 100 µM | 6.52 µM | > 100 µM | 4.88 µM | > 100 µM | 3.74 µM | > 100 µM | 3.56 µM | > 100 µM | 2.79 µM | 14 µM | 3.08 µM | 16 µM | 44.2 µM | > 100 | 0.865 µM | 3.29 µM
3 | COc1cc(/C=C2\CCCC3C2=Nc2ccccc2NC3c2cc(OC)c(OC)c(OC)c2)cc(OC)c1OC (stereo not given) | 2.55 µM | 8 µM | 0.591 µM | 3.6 µM | 1.87 µM | 6.8 µM | 1.81 µM | 5.86 µM | 2.31 µM | 5.4 µM | 0.643 µM | 2.42 µM | 0.957 µM | > 100 µM | 2.08 µM | 6.07 µM | 3.68 µM | 11.9 | 0.723 µM | 3.14 µM
4 | COc1cc(OC)cc(-c2ccc(-c3ccc(C(=N)N)s3)s2)c1 | 1.23 µM | 3.06 µM | 1.24 µM and 0.277 µM | 2.9 µM and 0.75 µM | 1.31 µM | 2.77 µM | 0.221 µM | 0.495 µM | 0.396 µM and 0.23 µM | 1.12 µM and 0.486 µM | 0.482 µM | 1.79 µM | 1.75 µM | 3.58 µM | 1.81 µM | 3.76 µM | 1.5 µM | 3.19 | 0.331 µM and 0.244 µM | 0.918 µM and 0.598 µM
5 | Nc1c(S(=O)(=O)O)cc(Nc2cccc(S(N)(=O)=O)c2)c2c1C(=O)c1ccccc1C2=O |  | > 100 µM |  | > 100 µM |  | > 100 µM |  | > 100 µM |  | > 100 µM |  | > 100 µM |  | > 100 µM |  | > 100 µM |  | > 100 |  | > 100 µM
6 | Cc1c2cnccc2c(C)c2c1c1cc(C(=O)O)ccc1n2C | 1.23 µM | 11.8 µM | 1.06 µM | 6.6 µM | 1.14 µM | 5.96 µM | 0.579 µM | 4.18 µM | 0.53 µM | 3.38 µM | 0.874 µM | 8.46 µM | 0.764 µM | 5.5 µM | 1.35 µM | 5.68 µM | 1.91 µM | 9.52 | 0.435 µM | 3.98 µM
7 | NC(=O)c1ccc2nc(-c3ccc(C4(N)CCC4)cc3)c(-c3ccccc3)n2n1 | 1.23 µM | 12.2 µM | 1.41 µM | 44.4 µM | 14.8 µM | 33.1 µM | 10.5 µM | 24 µM | 0.741 µM | 19.2 µM | 2.15 µM | 19.4 µM | 15.1 µM | 41.2 µM | 0.817 µM | 22 µM | 12.5 µM | 47 | 7.65 µM | 31.2 µM
8 | COc1cc(-c2nc3ccccc3[nH]2)ccc1OCC(=O)N=Nc1c(O)[nH]c2ccc(Cl)cc12 | 1.84 µM | 3.53 µM | 0.5 µM | 3.56 µM | 1.68 µM | 3.43 µM | 0.337 µM | 1.24 µM | 0.827 µM | 3.12 µM | 1.15 µM | 2.84 µM | > 100 µM | > 100 µM | 0.96 µM | 2.2 µM | 1.97 µM | 4.82 | 0.292 µM | 1.05 µM
9 | Cc1coc2c1CC1OC1(C)CCC1OC1(C)C2 (stereo not given) |  | > 100 µM |  | > 100 µM |  | > 100 µM |  | > 100 µM |  | > 100 µM |  | > 100 µM |  | > 100 µM |  | > 100 µM |  | > 100 |  | > 100 µM
10 | COc1ccc(S(=O)(=O)NC2=NCCN2C(=S)SN2CCn3c2nsc3=S)cc1OC | 25.5 µM | 63.9 µM | 11.3 µM | 30.9 µM | 41 µM | > 100 µM | 16.8 µM | 37.8 µM | 27.1 µM | > 100 µM | 28.1 µM | > 100 µM | 61.8 µM | > 100 µM | 21 µM | 47 µM | 20.8 µM | 40.4 | 22.6 µM | > 100 µM
11 | O=C(Nc1ccc(Cl)cc1F)c1cc(F)ccc1O | 2.73 µM | 9.73 µM | 3.16 µM | > 100 µM | 1.24 µM | > 46.3 µM | 0.522 µM | 5.31 µM | 1.9 µM | 4.77 µM | 0.647 µM | 13.5 µM | 1.63 µM | 7.1 µM | 0.528 µM | 10.8 µM | 3.26 µM | 23 | 0.752 µM | > 100 µM
12 | COc1ccccc1-c1ccc2nc(NC(=O)Nc3cc(C(F)(F)F)cc(C(F)(F)F)c3)sc2c1 | 1.44 µM | 3.25 µM | 2.43 µM | 15 µM | 4 µM | 14.9 µM | 1.68 µM | 3.13 µM | 1.58 µM | 7.24 µM | 2.26 µM | 6.12 µM | 2.37 µM | 7.19 µM | 1.58 µM | 4.58 µM | 2.54 µM | 9.66 | 1.76 µM | 5.25 µM
13 | Cc1cc(Nc2cc(CN3CCOCC3)c3nc(C)c(Cc4ccc(Cl)cc4F)n3n2)n[nH]1 | 1.67 µM | 6.18 µM | 0.59 µM | 3.94 µM | 1.24 µM | 11.5 µM | 1.11 µM | 2.69 µM | 1.59 µM | 6.71 µM | 0.437 µM | 6.63 µM | 4.28 µM | 18.7 µM | 3.24 µM | 15.3 µM | 1.8 µM | 7.03 | 0.282 µM | 1.53 µM
14 | O=S(=O)(CC#CCCCOCC#Cc1ccccc1C#CCS(=O)(=O)c1ccccc1)c1ccccc1 | 18.9 µM | 35.3 µM | 3.23 µM | 10.2 µM | 44.5 µM | > 100 µM | 8.1 µM | 24.8 µM | 2.61 µM | 5.9 µM | 31.2 µM | > 100 µM | 20.6 µM | 44.1 µM | 11.6 µM | 30 µM | 24.8 µM | 55.3 | 4.16 µM | 21.8 µM
15 | COc1cc(/C=C/C(=O)NC[C@]2(O)CCC3C4CCc5cc(O)ccc5C4CCC32C)ccc1O (stereo not given in full) | 11.3 µM | 45.7 µM | 3.18 µM | 86.1 µM | 23.9 µM | > 100 µM | 8.36 µM | > 100 µM | 3.9 µM | 32.7 µM | 9.47 µM | > 100 µM | 9.89 µM | 54.3 µM | 10.3 µM | > 100 µM | 56.9 µM | > 100 | 1.53 µM | 59.7 µM
16 | FC(F)(F)c1[nH]ncc1-c1nc2c(N3CCCCC3)cc3[nH]ncc3c2c2c1CCCC2 | 0.905 µM | 2.93 µM | 1.14 µM | > 50 µM | 0.702 µM | > 13 µM | 0.656 µM | 1.43 µM | 0.744 µM | 2.78 µM | 0.49 µM | 1.9 µM | 2.04 µM | > 50 µM | 1.07 µM | 3.14 µM | 1.04 µM | 3.61 | 0.235 µM | > 50 µM
17 | [C-]#[O+].[C-]#[O+].[Ir].[O-]c1ccc2ccccc2c1N=Nc1ccccc1 | 3.39 µM | 12.2 µM |  | 7.42 µM |  | 31.9 µM |  | 24.6 µM |  | 50.2 µM |  | > 70.6 µM |  | 51.8 µM |  | 17 µM |  | 38.3 |  | > 56.4 µM
18 | COc1ccc(-c2ccc3ncc4c(c3c2)n(-c2ccc(N3CCNCC3)c(C(F)(F)F)c2)c(=O)n4C)cn1 | < 0.01 µM and 0.00325 µM | 0.111 µM and 0.107 µM | < 0.01 µM and 0.00664 µM | 0.282 µM and 0.144 µM | < 0.01 µM and 0.00475 µM | 0.686 µM and 0.433 µM | < 0.01 µM and 0.00403 µM | 0.359 µM and 0.0882 µM | < 0.01 µM and 0.00654 µM | 0.186 µM and 0.143 µM | < 0.01 µM and 0.00389 µM | 0.223 µM and 0.141 µM | 0.0531 µM and 0.0595 µM | 1.27 µM and 0.712 µM | < 0.01 µM and 0.00596 µM | 0.341 µM and 0.497 µM | < 0.0115 µM and 0.00752 µM |  | 0.02 µM and 0.00681 µM | 0.266 µM and 0.365 µM
19 | Clc1nc(Cl)c2ncn(C/C=C/Cn3cnc4c(Cl)nc(Cl)nc43)c2n1 | 23.4 µM | 48.5 µM | 10.7 µM | 25.3 µM | 15.2 µM | 28.6 µM | 14.9 µM | 28.9 µM | 17 µM | 37.4 µM | 20 µM | 40.7 µM | 20.1 µM | 44.6 µM | 12.2 µM | 25.4 µM | 19.5 µM | 35.1 | 14.9 µM | 32.2 µM
